From patent US12411143B2, “CD146 and uses thereof as a biomarker and as a therapeutic target in the diagnosis and treatment of fibrosis” (ASSISTANCE PUBLIQUE HÔPITAUX DE MARSEILLE, priority 2018, dated 2025)

Tests used:
ECFC [1] = experiment: ECFC proliferation assay; assay type: cell-based, human; conditions: siRNA or plasmid transfection, in the presence of GM6001 10 μM
Description: A: Effect of siRNA targeting I10-sCD146 and I5-13-sCD146 on proliferation of ECFC. Experiments were performed in the presence of GM6001 10 μM. Results are mean values of 4 different experiments and representative pictures of the cells in one experiment are given.
B: Effect of over-expression of I10-sCD146 (p-I10-sCD146), I5-13-sCD146 (p-I5-13-sCD146) and shed sCD146 (p-shed sCD146) realized by plasmid transfection on proliferation of ECFC. Experiments were performed in the presence of GM6001 10 μM.
C: Effect of recombinant proteins I10-sCD146, I5-13-sCD146 and shed sCD146 50 ng/ml on the proliferation of ECFC. Experiments were performed in the presence of GM6001 10 μM. Results are mean values of 4 different experiments.
Experiments were performed as previously described (Stalin et al., 2013).

ECFC [2] = experiment: Soluble CD146 secretion in ECFC (ELISA); assay type: cell-based, human
Description: A: Secretion of soluble CD146 (CD146s) was determined in ECFC in response to 24 h of treatment with 20 ng/ml TNF, 20 ng/ml VEGF, 5 ng/ml TGFb, 50 ng/ml netrin, 50 ng/ml Wnt5a and 50 ng/ml Wnt3a.
B: The effect of the pan-inhibitor GM6001 was tested on CD146s secretion in ECFC cells by ELISA. Experiments were performed in control conditions and after treatment with 20 ng/ml TNF for 24 h. […] A dose-dependence of GM6001 effect was performed between 1 and 50 μM. Results are the mean values+/−SEM of 5 experiments.
C: The effect of furin convertase inhibitor (IF) was tested at 50 μMon CD146s secretion in control condition and after treatment with TNF 20 ng/ml for 24 h. Results are the mean values+/−SEM of 3 experiments.
D: Effect of TIMP-1, -2 and -3 (1 μg/ml) was tested on CD146s secretion in control condition and after treatment with 20 ng/ml TNF. Results are the mean values+/−SEM of 3 experiments. *: P<0.05, **: P<0.01, ***: P<0.001, experimental vs Control
A: ECFC were transfected with siRNA targeting the short (shCD146) or the long (IgCD146) isoforms of CD146 and with a control siRNA (C). Soluble CD146 (sCD146) secretion was determined. Results are the mean values+/−SEM of 4 different experiments.
B: ECFC were transfected with siRNA targeting MT1-MMP, MMP2, ADAM10 or Tace and with a control siRNA (C). Soluble CD146 (sCD146) secretion was determined. In one condition, cells were treated with GM6001 10 μM. Results are the mean values+/−SEM of 5 different experiments.
A: ECFC were transfected with siRNA targeting the short (shCD146) or the long (IgCD146) isoforms of CD146 and with a control siRNA (C) and soluble CD146 (sCD146) secretion was determined in basal condition and in cells treated for 24 h with TNF 20 ng/ml. Results are the mean values +/−SEM of 5 different experiments.
B: ECFC treated for 24 h with 20 ng/ml TNF were transfected with siRNA targeting Tace, ADAM10, MT1-MMP and with a control siRNA (C) and soluble CD146 (sCD146) secretion was determined. Results are the mean values +/−SEM of 3 different experiments.
Endothelial Colony Forming Cells (ECFC) were cultured in endothelial EGM-2 MV medium as previously described (Delorme B et al., 2005).
SiRNA designed to silence the different isoforms of sCD146 were generated. A control siRNA was also used in each experiment. siRNAs were introduced in endothelial cells using the Silence magmagnetofection kit as described by the manufacturer (OZ Biosciences).
Shed sCD146 was assayed using the commercial ELISA assay (CY-QUANT sCD146, Biocytex, Marseille). Plates were coated with specific mouse monoclonal anti-human CD146 F(ab′)2 fragments. 10 μL of sera was added to each well and incubated for 30 minutes at room temperature. After incubation, the plates were washed five times, followed by incubation with a specific HRP-coupled monoclonal antibody (7A4-HRP, 1 mg/ml, Biocytex, Marseille, France) at a 1:1 000 dilution in a specific diluent for 30 minutes at room temperature and then washed five times. 200 μL of tetramethylbenzidine (TMB) substrate was incubated for approximately 20 minutes at room temperature. The colorimetric reaction was then stopped by the addition of 100 μL of an acid solution. The intensity of the signal was directly related to the concentration of sCD146 initially contained in the sample. For detecting the two spliced isoforms of sCD146 (I5-13-sCD146 and I10-sCD146), the same immunoassay was used (Biocytex). The protocol was modified only for the second antibody (detection antibody) that was replaced by the anti-I5-13-sCD146 or anti-I10-sCD146 antibodies coupled to HRP.

[3] = system: mouse ischemic hind limb model; experiment: Mouse hind limb ischemia model; assay type: in vivo
Description: A: Ischemic mice were treated with PBS or 2 μg of rh-sCD146/rh-I10-sCD146/rh-I5-13-sCD146 or VEGF. Blood perfusion rate was monitored by laser-Doppler. Results are mean values of 6 different animals in each group and expressed as % of the control leg. *, **, ***: P<0.05, P<0.01, P<0.001, I10-sCD146 vs. PBS; $$, $$$: P<0.01, P<0.001, I5-13-sCD146 vs. PBS; ##, ###: P<0.01, P<0.001, shed sCD146 vs. PBS; £: P<0.05, VEGF vs. PBS.
B: Blood vessels examination in hind limb muscle sections from control (PBS) and shed rh-sCD146/rh-I10-sCD146/rh-I5-13-sCD146 treated animals 28 days after surgery. Vessels are labelled with isolectin B4.**, ***: P<0.01, P<0.001, experimental vs control. $: P<0.05, I10-sCD146 vs I5-13-sCD146.
C: Angiographic pictures of control (PBS) and shed sCD146/I10-sCD146/I5-13-sCD146 treated animals at D28. Pictures are representative of the 6 animals in each group. Average of the density of the vessels was expressed as right versus left leg in the different parts of the legs (calf, thigh) and in the whole leg. *, **: P<0.01, P<0.001 experimental vs PBS in calf; $: P<0.05, experimental vs PBS in thigh; #, ##: P<0.05, P<0.01, experimental vs PBS in whole leg.
In sections of muscles from ischemic mice, vascularisation was visualized with isolectin B4 (Lifetechnologies) ( 1/100). Tissue sections were examined by fluorescence microscopy (Leica sp5, Leica, Nanterre, France).
Female mice were subjected to unilateral hind limb ischemia by complete resection of the entire left femoral artery. After surgery, animals were split in four treatment groups: one control group injected in ischemic adductor muscles twice a week with PBS for 28 days; three experimental groups treated as the control groups with the three different recombinant human soluble CD146 (rh-sCD146, rh-I5-13-sCD146, rh-I10-sCD146) 2 μg.
The ratio of the ischemic versus normal hind limb blood flow was measured using a laser doppler blood flow analyzer. At different time points post-surgery (days 1, 3, 7, 14, 21 and 28), animals were subjected to 3 consecutive laser scannings over the regions of interest (leg and feet). Blood flow was expressed as the ischemic versus normal hind limb ratio.
The animals were deeply anesthetised with mix of Ketamine Xylasine (100 mg/kg and 10 mg/kg respectively) and perfused intracardially with 2 ml of lipiodole. CT 3D images were obtained with a microPET/microCT rodent model scanner (nanoPET/CTO, Mediso) with features below: 70 kVp energy, exposure time of 300 ms and 720 projections and were quantified.

ECFC [4] = experiment: mRNA expression of sCD146 isoforms in ECFC (qPCR); assay type: cell-based, human; conditions: ECFC; 24 h treatment (WNT5a 15 min, WNT3a 1 h)
Description: C: The mRNA expression of I10-sCD146 and I5-13-sCD146 isoforms was analyzed by qPCR in ECFC after treatment of the cells for 24 h with the recombinant shed soluble CD146 50 ng/ml, VEGF 20 ng/ml, TNF 20 ng/ml, TGF beta 5 ng/ml, and netrin 50 ng/ml. Cells were also treated for 15 min with WNT5a 200 ng/ml and 1 h with WNT3a 50 ng/ml. Results are the mean values +/−SEM of 3 experiments. *: P<0.05, experimental vs Control.
Total cellular RNA was isolated from cells, reverse transcribed into cDNA and the resulting cDNA was subjected to qPCR.

ECFC [5] = experiment: Permeability of ECFC monolayer to dextran-FITC; assay type: cell-based, human; conditions: siRNA or plasmid transfection
Description: D: ECFC were transfected with siRNA targeting ADAM10 or Tace and with a control siRNA (C). The permeability of the ECFC monolayer grown on semi-permeable filters was determined using dextran-FITC. Results are the mean values+/−SEM of 3 experiments.
E: ECFC were transfected with plasmid vectors encoding ADAM10 (p-ADAM10) or Tace (p-Tace) and with a control plasmid vector (C). The permeability of the ECFC monolayer grown on semi-permeable filters was determined using dextran-FITC. Results are the mean values+/−SEM of 3 experiments. *: P<0.05, **: P<0.01, ***: P<0.001, experimental vs Control.
ECFC were seeded at 60,000 cells per well on membrane inserts (porosity 1 μm) of a 24-multiwell double chamber system (Multiwell Insert System, BD Biosciences, Le Pont de Claix, France) after siRNA transfection or not. Confluent endothelial monolayers were then incubated for 24 h in EGM-2 medium in the presence or absence of the different forms of sCD146. The FITC-dextran (sigma) was added at the apical surface of the cells and was allowed to migrate for 1.5 h at 37° C. Basolateral FITC-dextran was then measured using a Cytofluor Series 4000 Fluorescence (PerSeptiveBiosystems, Framingham, MA).

Substance	proliferation of ECFC (ECFC [1])	reduction of sCD146 secretion by siRNA (ECFC [2]; 24 h TNF 20 ng/ml)	permeability of ECFC monolayer to dextran (ECFC [5])	effect of siRNA on sCD146 secretion (ECFC [2]; control condition)	other results
siRNA targeting I5-13-sCD146: siRNA targeting I5-13-sCD146; sens UGGACAUCUAGACGGCUGCUCGUUU (antisense AAACGAGCAGCCGUCUAGAUGUCCA; chemistry not given here)	inhibited the proliferation of ECFC				
VEGF [reference compound]					secretion of soluble CD146 in response to stimuli (ECFC [2]; 24 h, 20 ng/ml TNF, 20 ng/ml VEGF, 5 ng/ml TGFb, 50 ng/ml netrin, 50 ng/ml Wnt5a): increased; vascularisation of muscle (isolectin B4 labelling) ([3]; 28 days after surgery, compared to PBS): vascularisation was increased; vessel density in calf, thigh and whole leg (angiography quantification) ([3]; D28, compared to PBS): significantly increased; I5-13-sCD146 mRNA level (ECFC [4]): not modified; I10-sCD146 mRNA level (ECFC [4]): down-regulated
siRNA targeting I10-sCD146: siRNA targeting I10-sCD146; sens CCCUCCCUCUGGGUAGAGACCAGGU (antisense ACCUGGUCUCUACCCAGAGGGAGGG; chemistry not given here)	inhibited the proliferation of ECFC				
Tace siRNA: siRNA targeting Tace; sens 5′CAGGAUUUAAAGGUUAUGGAA (antisense UUCCAUAAACCUUUAAAUCCUG; listed as RNA, chemistry not given here)		25%	did not modify it		
IgCD146 siRNA: siRNA targeting the long isoform of CD146; sens 5′CCCGUCUCGUAAGACCGAACUUGUA (antisense UACAAGUUCGGUCUUACGAGACGGG; chemistry not given here)		about 60%	significantly increased endothelial permeability	reduced sCD146 secretion	reduction of sCD146 secretion by siRNA (ECFC [2]; control condition): around 75%
ADAM10 siRNA: siRNA targeting ADAM10; sens 5′GAAUGGUAGAACAAGGUGAtt (sense GAAUGGUAGAACAAGGUGATT; antisense UCACCUUGUUCUACCAUUCCA; chemistry not given here)		60%	decreased	able to inhibit sCD146 secretion	
